Values of other authors as cited in patent US20120071440A1, “Pharmaceutical Composition For Enhancing Adiponectin Production And Food Useful Therefor” (priority 2009, published 2012).

Tested on: adiponectin
Conditions: reported in Diabetes Research and Clinical Practice 2004

Compound: Cn1c(=O)c2c(ncn2C)n(C)c1=O [caffeine]
- adiponectin production: capable of producing adiponectin, but this effect is not large
